The test system of one data set is HCT116. As to the kind of experiment: 3 day MTS cytotoxicity assay, HCT116. In kind it is cell-based. The following applies: Homo sapiens, HCT-116; HCT116, ITK/BTK-negative; mean ± SD, n ≥ 6. Here is the method: (§1) The cytotoxic activity of all the 10 compounds was tested under in vitro conditions using a 3 day standard 3-(4,5-dimethylthiazol-2yl)-5-(3-carboxymethoxyphenyl)-2-(4-sulfophenyl)-2H-tetrazolium reduction assay in 384-well plates on a robotic high-throughput screening platform (HighResBio, Boston, MA) as described elsewhere.[38] The IC50 values were calculated from the respective dose–response curves of compounds with Dotmatics (San Diego, CA, USA).

The next data set deals with HCT116p53^–/–. As to the kind of experiment: 3 day MTS cytotoxicity assay, HCT116p53-/-. It is filed as cell-based. The following applies: ITK/BTK-negative, mean ± SD, n ≥ 6. Here is the method: as §1
For orientation: Tetrazolium assays rely on reduction of a dye to a coloured formazan, in cell work by metabolically active cells.

For another data set, the system named is JURKAT. Briefly: 3 day MTS cytotoxicity assay, JURKAT. In kind it is cell-based. As to conditions: Homo sapiens, ITK-positive, mean ± SD, n ≥ 6. The procedure:
as §1

A further data set concerns BJ. As to the kind of experiment: 3 day MTS cytotoxicity assay, BJ. In kind it is cell-based. The following applies: Homo sapiens, non-cancer fibroblasts, mean ± SD, n ≥ 6. The procedure: as §1
The subject of another data set is K562. As to the kind of experiment: 3 day MTS cytotoxicity assay, K562. It is filed as cell-based. As to conditions: Homo sapiens; K562, BTK-positive; mean ± SD, n ≥ 6. Here is the method:
as §1

Another data set concerns RAMOS. Briefly: 3 day MTS cytotoxicity assay, RAMOS. It is filed as cell-based, human. The following applies: for activity in RAMOS cells: BTK-high; for IC50: Homo sapiens, Ramos, BTK-positive, mean ± SD, n ≥ 6. Here is the method:
as §1

A further data set relates to CCRF-CEM. Briefly: 3 day MTS cytotoxicity assay, CCRF-CEM. It is filed as cell-based. As to conditions: Homo sapiens, ITK-positive, mean ± SD, n ≥ 6. The procedure: as §1
For a further data set, the system named is MRC-5. Briefly: 3 day MTS cytotoxicity assay, MRC-5. It is filed as cell-based. As to conditions: Homo sapiens, MRC5; MRC-5, non-cancer fibroblasts; mean ± SD, n ≥ 6. The procedure: as §1
The subject of the next data set is A549. As to the kind of experiment: 3 day MTS cytotoxicity assay, A549. In kind it is cell-based. The following applies: Homo sapiens; A549, ITK/BTK-negative; mean ± SD, n ≥ 6. The procedure: as §1
A further data set concerns U2OS. Briefly: 3 day MTS cytotoxicity assay, U2OS. It is filed as cell-based. The following applies: Homo sapiens, ITK/BTK-negative, mean ± SD, n ≥ 6. Here is the method: as §1

Molecules are shown by their SMILES. “Also recorded” adds a separate entry of the source. Counter-ions that a name gives are not always drawn.

Results on 16 molecules are retold here after publication PMC10882696, “Novel 5-Substituted Oxindole Derivatives as Bruton’s Tyrosine Kinase Inhibitors: Design, Synthesis, Docking, Molecular Dynamics Simulation, and Biological Evaluation” (ACS Omega, 2024).

For orientation: melting point means the temperature of the solid-liquid transition. For `O=C1Nc2ccc(S(=O)(=O)N3CCN(C(=O)C4CCCCC4)CC3)cc2C1=C1CCCC1` (as salt: hydrochloride) [9b, 5-((4-(Cyclohexanecarbonyl)piperazin-1-yl)sulfonyl)-3-cyclopentylideneindolin-2-one], the melting point was in the range of 140 to 145 °C.

`O=C1Nc2ccc(S(=O)(=O)N3CCN(C(=O)C4CC4)CC3)cc2C1=C1CCCC1` (as salt: hydrochloride) [9c, 3-Cyclopentylidene-5-((4-(cyclopropanecarbonyl)piperazin-1-yl)sulfonyl)indolin-2-one] showed a melting point of 136 to 142 °C.

`O=C1Nc2ccc(S(=O)(=O)N3CCN(C(=O)c4ccccc4)CC3)cc2C1=C1CCCC1` (as salt: hydrochloride) [9d, 5-((4-Benzoylpiperazin-1-yl)sulfonyl)-3-cyclopentylideneindolin-2-one] displayed a melting point of 135 to 140 °C.

Molecule `O=C1Nc2ccc(S(=O)(=O)N3CCN(C(=O)c4cccc(Cl)c4)CC3)cc2C1=C1CCCC1` (as salt: hydrochloride) [9e, 5-((4-(3-Chlorobenzoyl)piperazin-1-yl)sulfonyl)-3-cyclopentylideneindolin-2-one] had a melting point of 133 to 138 °C.

On to `O=C1Nc2ccc(S(=O)(=O)N3CCN(C(=O)c4cccc(Br)c4)CC3)cc2C1=C1CCCC1` (as salt: hydrochloride) [9f, 5-((4-(3-Bromobenzoyl)piperazin-1-yl)sulfonyl)-3-cyclopentylideneindolin-2-one], for which the melting point was 130 to 135 °C.

`O=C1Nc2ccc(S(=O)(=O)N3CCN(C(=O)c4cccc(F)c4)CC3)cc2C1=C1CCCC1` (as salt: hydrochloride) [9g, 3-Cyclopentylidene-5-((4-(3-fluorobenzoyl)piperazin-1-yl)sulfonyl)indolin-2-one] showed a melting point of 132 to 135 °C.

With `CCCCC(=O)N1CCN(S(=O)(=O)c2ccc3c(c2)C(=C2CCCC2)C(=O)N3)CC1` (as salt: hydrochloride) [9h, 3-Cyclopentylidene-5-((4-pentanoylpiperazin-1-yl)sulfonyl)indolin-2-one], the melting point lay within 130 to 135 °C.

As to `O=C1Nc2ccc(S(=O)(=O)N3CCN(C(=O)c4cccnc4)CC3)cc2C1=C1CCCC1` (as salt: hydrochloride) [9i, 3-Cyclopentylidene-5-((4-nicotinoylpiperazin-1-yl)sulfonyl)indolin-2-one], the melting point lay within 195 to 200 °C.

Regarding `O=C1Nc2ccc(S(=O)(=O)N3CCN(C(=O)c4cccc(C(F)(F)F)c4)CC3)cc2C1=C1CCCC1` (as salt: hydrochloride) [9j, 3-Cyclopentylidene-5-((4-(3-(trifluoromethyl)benzoyl)piperazin-1-yl)sulfonyl)indolin-2-one], the melting point was 139 to 143 °C.

Broadly, the IC50 is the concentration at which inhibition is half-maximal. Low readings indicate greater potency, high ones weaker potency. Consider `O=C1Nc2ccc(S(=O)(=O)N3CCN(C(=O)C4CC4)CC3)cc2C1=C1CCCC1` [9c, 3-Cyclopentylidene-5-((4-(cyclopropanecarbonyl)piperazin-1-yl)sulfonyl)indolin-2-one], for which the IC50 in the data set on HCT116 was above 50 µM; in the data set on HCT116p53^–/–, above 50 µM; in the data set with JURKAT, 50 µM; with BJ, above 50 µM; with K562, above 50 µM; in the data set on RAMOS, above 50 µM. In addition, the IC50 in the data set on CCRF-CEM, in the data set with MRC-5, with A549 and with U2OS was above 50 µM each time. Besides, the “activity in RAMOS cells” value with RAMOS was “did not show any activity”.

Consider `O=C1Nc2ccc(S(=O)(=O)N3CCN(C(=O)c4ccccc4)CC3)cc2C1=C1CCCC1` [9d, 5-((4-Benzoylpiperazin-1-yl)sulfonyl)-3-cyclopentylideneindolin-2-one], for which the IC50 with HCT116, in the data set on HCT116p53^–/–, in the data set with JURKAT, with BJ, in the data set with K562 and in the data set with RAMOS was above 50 µM each time. For the same molecule, the IC50 in the data set with CCRF-CEM, with MRC-5, with A549 and in the data set with U2OS was above 50 µM throughout. The “activity in RAMOS cells” value with RAMOS was “did not show any activity”.

Regarding `O=C1Nc2ccc(S(=O)(=O)N3CCN(C(=O)c4cccc(Cl)c4)CC3)cc2C1=C1CCCC1` [9e, 5-((4-(3-Chlorobenzoyl)piperazin-1-yl)sulfonyl)-3-cyclopentylideneindolin-2-one], the IC50 with HCT116, with HCT116p53^–/–, with JURKAT, in the data set with BJ, in the data set with K562 and in the data set with RAMOS was above 50 µM each time. Moreover, the IC50 in the data set with CCRF-CEM, with MRC-5, in the data set with A549 and in the data set with U2OS was above 50 µM each time. Also, the “activity in RAMOS cells” value in the data set with RAMOS is recorded as “did not show any activity”.

Consider `O=C1Nc2ccc(S(=O)(=O)N3CCN(C(=O)c4cccc(F)c4)CC3)cc2C1=C1CCCC1` [9g, 3-Cyclopentylidene-5-((4-(3-fluorobenzoyl)piperazin-1-yl)sulfonyl)indolin-2-one], for which the IC50 in the data set with HCT116 was above 50 µM; in the data set on HCT116p53^–/– it was above 50 µM; with JURKAT, above 50 µM; in the data set on BJ, above 50 µM; in the data set on K562 it was above 50 µM; in the data set with RAMOS, 2.09 ± 0.47 µM. Moreover, the half-maximal inhibitory concentration (IC50) is 46.5 ± 5.81 µM in the data set on CCRF-CEM, above 50 µM in the data set with MRC-5, above 50 µM in the data set on A549 and above 50 µM in the data set on U2OS. The “activity in RAMOS cells” value in the data set on RAMOS is “selective cytotoxicity; also recorded: showed activity; also recorded: good anticancer activity in the micromole range”.

Regarding `O=C1Nc2ccc(S(=O)(=O)N3CCN(C(=O)c4cccnc4)CC3)cc2C1=C1CCCC1` [9i, 3-Cyclopentylidene-5-((4-nicotinoylpiperazin-1-yl)sulfonyl)indolin-2-one], the IC50 in the data set with HCT116, in the data set with HCT116p53^–/–, in the data set on JURKAT, with BJ, with K562 and in the data set on RAMOS was above 50 µM each time. Further, the IC50 in the data set on CCRF-CEM, in the data set with MRC-5, with A549 and with U2OS was above 50 µM throughout. In addition, the “activity in RAMOS cells” value in the data set with RAMOS is recorded as “no activity”.

For `O=C1Nc2ccc(S(=O)(=O)N3CCN(C(=O)c4cccc(C(F)(F)F)c4)CC3)cc2C1=C1CCCC1` [9j, 3-Cyclopentylidene-5-((4-(3-(trifluoromethyl)benzoyl)piperazin-1-yl)sulfonyl)indolin-2-one], the IC50 in the data set with HCT116, in the data set on HCT116p53^–/–, with JURKAT, in the data set with BJ, in the data set on K562 and in the data set with RAMOS was above 50 µM throughout. For the same molecule, the IC50 is above 50 µM with CCRF-CEM, 27.4 ± 6.8 µM in the data set on MRC-5, above 50 µM with A549 and 23.6 ± 6.44 µM with U2OS. For the same molecule, the “activity in RAMOS cells” value in the data set on RAMOS is reported as “no activity”.

Take `C=CC(=O)N1CCC[C@@H](n2nc(-c3ccc(Oc4ccccc4)cc3)c3c(N)ncnc32)C1` [ibrutinib, Ibrutinib, reference compound]: the IC50 in the data set with HCT116 worked out at 30 ± 1 µM; with HCT116p53^–/–, 30 ± 1 µM; in the data set on JURKAT, 5 ± 1 µM; with BJ it was 29 ± 1 µM; in the data set with K562, 27 ± 3 µM; with RAMOS it was 0.3 µM. In addition, the values for the half-maximal inhibitory concentration (IC50) in the data set on CCRF-CEM, with MRC-5 and in the data set on U2OS were 4 ± 1 µM, 28 µM and 23 ± 3 µM, respectively.
